Experimental data as given in patent US10183015B2, “Heterocyclic compounds and methods of use” (Medivation Technologies LLC, priority 2015, dated 2019).
Where “and” joins values, the source holds several entries; their conditions need not be identical. Equal entries are not always repeated.

Experiments:
ob/ob mice = assay: ob/ob mice: plasma triglycerides, non-esterified fatty acids, total cholesterol, insulin; type: in vivo, mouse; settings: 8 weeks
Experimental: Groups of mice were either untreated (group 1) or treated for 8 weeks with vehicle (group 2), or with Compound #37 at 5 mg/kg (group 3), 10 mg/kg (group 4), or 20 mg/kg (group 5). Treatment was daily by oral gavage in vehicle (20% HPβCD). Values are presented as mean±standard error of the mean (sem). A t test was performed to compare the untreated group and the vehicle group. Then Compound #37-treated groups were compared to the vehicle-treated group with a 1-way ANOVA+Dunnett's post-test. […] For each test, a p<0.05 was considered significant. Of note, animal #39, group 1 was excluded from the statistical analysis, due to low values for all parameters measured. Some other values were considered as out-liners and excluded from the statistical analysis when the value was far below the mean minus 2 SD. Excluded values are marked with an asterisk in Tables 21-23.

[1] = system: diet-induced NASH obese insulin resistant mice; assay: DIN mouse model: NAS scores; type: in vivo; parameters: total / steatosis / inflammation / fibrosis / hepatocyte ballooning: scale not given here
Experimental: NAFLD score analysis. A 0.5 cm^3 piece of liver was fixed in 10% formalin for 48-72h, stored in ethanol 70° at 4° C., and processed for eosin/hematoxylin staining and NAFLD score analysis. One section (thickness 3-5 μm) per block was deposited on Superfrost+slides for hematoxylin-eosin staining. Individual slides having a single hepatic lobe section stained with H&E were digitized using a Nanozoomer from Hamamatsu. Sections were evaluated with knowledge of groups. Each section was evaluated and individually scored. A NAFLD scoring system (NAS) adapted from Kleiner et al. (Hepatology 41, 1313-21, 2005), Wu et al. (BMC Vet. Res. 10, 162, 2014), and Lee et al. (J. Lipid Res. 48, 1885-96, 2007). A total of four variables were qualitatively assessed and ranked with a score: (1) hepatocellular steatosis, (2) liver inflammation, (3) lobular fibrosis, and (4) hepatocyte ballooning.
(§1) Male C57Bl/6J mice (8 weeks old) were housed in enriched ventilated cages (31×12.5×12.7 cm) throughout the experimental phase. Animals' cages litters were changed at least once a week. Animal were housed 5 per cage on inverted 12-hour light cycle (at 09:00 am lights off), 22±2° C. and 55±10% relative humidity. The acclimation period was 20 days. During the acclimation period, all mice were fed a standard diet (RM1 (E) 801492, SDS) and tap water ad libitum. After the acclimation period, mice were fed with the DIN diet (60% fat, cholesterol enriched) and fructose-enriched tap water ad libitum until the end of the experiment.
(§2) At 6 weeks of diet, mice were 4-hour fasted (09:00 am to 1:00 pm) and blood (150 μl/EDTA) was collected at 01:00 pm by retro-orbital bleeding under isoflurane anesthesia. Mice were then allocated in 2 homogenous groups (n=12/group) according to their plasma levels of ALT (average levels: 685U/L), AST (average levels: 627U/L) and HOMA-IR index (average value: 4.7), into 2 homogenous groups (see values at day 0 in Tables 15A and 15B ALT/AST and Tables 16A and 16B for HOMA-IR). Mice were then treated once daily by oral gavage with vehicle (Group 1) or Compound #37 at 20 mg/kg (Group 2) for 70 days.
Each section was evaluated and individually scored using the modified NAFLD scoring system described above.

[2] = system: diet-induced NASH obese insulin resistant mice; assay: DIN mouse model: liver weight and liver lipid levels; type: in vivo; parameters: liver weight: unit not given here; settings: 20 mg/kg
Experimental: as §1, §2
To investigate whether Compound #37 improves pre-existing steatosis/NASH pathology, a study was conducted using a 16-week diet-induced NASH mouse model. In this model, mice develop steatosis that progresses with inflammation and fibrosis that mimic many of the observed pathologies in human nonalcoholic fatty liver disease (NAFLD) and NASH (Hebbard & George, 2010). For 6 weeks, mice were fed a high-fat, high-cholesterol diet and provided drinking water containing fructose to induce liver pathology (Charlton et al, 2011). After 6 weeks, the mice were divided into 2 groups with similar mean aspartate aminotransferase (AST) and alanine aminotransferase (ALT) values (n=12 mice), although it should be noted that AST and ALT concentrations within both groups were higher and with greater variability than anticipated (e.g., mean ALT 677 U/L [SD, 401 U/L] in the vehicle control group and 693 U/L [SD, 365 U/L] in the Compound #37 group). After the animals were divided into 2 groups, the diet was continued for 10 additional weeks during which time 1 group received vehicle and the other was treated with 20 mg/kg/day Compound #37.

[3] = 5 mg/kg daily oral gavage, group mean
[4] = 5 mg/kg daily oral gavage, individual animal values, 5 mg/kg
[5] = 10 mg/kg daily oral gavage, group mean
[6] = 10 mg/kg daily oral gavage, individual animal values, 10 mg/kg
[7] = 20 mg/kg daily oral gavage, group mean
[8] = 20 mg/kg daily oral gavage, individual animal values, 20 mg/kg
[9] = NAS score, 20 mg/kg group, mean, n 11

**Q.** CC(C)Cc1cc(-c2nc(-c3ccc(NS(=O)(=O)C(F)(F)F)cc3Cl)cs2)ccn1 [Compound 37, N-(3-chloro-4-(2-(2-isobutylpyridin-4-yl)thiazol-4-yl)phenyl)-1,1,1-trifluoromethanesulfonamide] was tested. Which plasma insulin (ob/ob mice; [3]) did it give?
**A.** The plasma insulin was 274.1 μU/mL.

**Q.** What about the “plasma non-esterified fatty acids” value (ob/ob mice; [3]) of the same molecule?
**A.** The value was 0.7 mM.

**Q.** What about the plasma total cholesterol (ob/ob mice; [3]) of the same molecule?
**A.** The plasma total cholesterol was 1.8 g/L.

**Q.** What about the plasma triglycerides (ob/ob mice; [3]) of the same molecule?
**A.** Its plasma triglycerides is 1.6 g/L.

**Q.** And the plasma insulin (ob/ob mice; 5 mg/kg daily oral gavage, individual animal values (* = excluded from statistical analysis), 5 mg/kg)?
**A.** The plasma insulin was 198.7 μU/mL and 262.7 μU/mL and 181.1 μU/mL and 250.5 μU/mL and 118.7 μU/mL and 394.6 μU/mL and 24.6* μU/mL and 374.6 μU/mL and 512.6 μU/mL and 173.1 μU/mL.

**Q.** And the “plasma non-esterified fatty acids” value (ob/ob mice; [4])?
**A.** The value was 1.028 mM and 0.77 mM and 0.616 mM and 0.552 mM and 0.68 mM (2×) and 1.092 mM and 0.783 mM and 0.655 mM and 0.539 mM.

**Q.** What about the plasma total cholesterol (ob/ob mice; [4]) of the same molecule?
**A.** Its plasma total cholesterol is 1.587 g/L and 1.903 g/L and 1.916 g/L and 1.853 g/L and 2.017 g/L and 1.537 g/L and 2.08 g/L and 1.625 g/L and 1.347 g/L and 1.638 g/L.

**Q.** And the plasma triglycerides (ob/ob mice; [4])?
**A.** The plasma triglycerides was 1.283 g/L and 1.152 g/L and 1.038 g/L and 1.397 g/L (2×) and 1.593 g/L and 1.201 g/L and 1.609 g/L and 2.408 g/L and 2.504 g/L.

**Q.** And the plasma insulin (ob/ob mice; [5])?
**A.** Its plasma insulin is 357.3 μU/mL.

**Q.** And the “plasma non-esterified fatty acids” value (ob/ob mice; [5])?
**A.** Its value is 0.7 mM.

**Q.** What about the plasma total cholesterol (ob/ob mice; [5]) of the same molecule?
**A.** The plasma total cholesterol was 1.7 g/L.

**Q.** And the plasma triglycerides (ob/ob mice; [5])?
**A.** The plasma triglycerides was 1.3 g/L.

**Q.** What about the plasma insulin (ob/ob mice; [6]) of the same molecule?
**A.** The plasma insulin was 123.8 μU/mL and 457.7 μU/mL and 81.9 μU/mL and 949.0 μU/mL and 153.3 μU/mL and 62.6 μU/mL and 508.2 μU/mL and 904.4 μU/mL and 194.4 μU/mL and 137.5 μU/mL.

**Q.** What about the “plasma non-esterified fatty acids” value (ob/ob mice; [6]) of the same molecule?
**A.** The value was 1.009 mM and 0.474 mM and 0.828 mM and 0.7 mM and 0.564 mM and 0.951 mM and 0.738 mM and 0.661 mM and 0.809 mM and 0.307 mM.

**Q.** What about the plasma total cholesterol (ob/ob mice; [6]) of the same molecule?
**A.** Its plasma total cholesterol is 1.587 g/L and 1.865 g/L (2×) and 1.891 g/L (2×) and 1.827 g/L (2×) and 1.234 g/L and 1.651 g/L and 1.183 g/L.

**Q.** And the plasma triglycerides (ob/ob mice; [6])?
**A.** The plasma triglycerides was 0.94 g/L and 1.12 g/L and 0.875 g/L and 1.218 g/L and 1.528 g/L and 1.299 g/L and 1.968 g/L and 1.381 g/L and 1.593 g/L and 0.777 g/L.

**Q.** And the plasma insulin (ob/ob mice; [7])?
**A.** Its plasma insulin is 444.1 μU/mL.

**Q.** What about the “plasma non-esterified fatty acids” value (ob/ob mice; [7]) of the same molecule?
**A.** Its value is 0.5 mM.

**Q.** What about the plasma total cholesterol (ob/ob mice; [7]) of the same molecule?
**A.** Its plasma total cholesterol is 1.5 g/L.

**Q.** And the plasma triglycerides (ob/ob mice; [7])?
**A.** The plasma triglycerides was 1.5 g/L.

**Q.** What about the plasma insulin (ob/ob mice; [8]) of the same molecule?
**A.** Its plasma insulin is 447.3 μU/mL and 10.5 μU/mL and 730.1 μU/mL and 505.0 μU/mL and 254.3 μU/mL and 881.0 μU/mL and 810.7 μU/mL and 483.7 μU/mL and 62.6 μU/mL and 256.2 μU/mL.

**Q.** And the “plasma non-esterified fatty acids” value (ob/ob mice; [8])?
**A.** Its value is 0.429 mM and 0.642 mM and 0.494 mM and 0.481 mM and 0.423 mM (2×) and 0.513 mM and 0.397 mM and 0.687 mM and 0.597 mM.

**Q.** And the plasma total cholesterol (ob/ob mice; [8])?
**A.** The plasma total cholesterol was 1.234 g/L and 0.893 g/L and 1.499 g/L and 1.714 g/L and 1.663 g/L (2×) and 1.625 g/L and 1.587 g/L and 1.36 g/L and 1.272 g/L.

**Q.** And the plasma triglycerides (ob/ob mice; [8])?
**A.** The plasma triglycerides was 0.875 g/L and 1.886 g/L and 1.511 g/L (2×) and 1.642 g/L and 1.854 g/L and 1.283 g/L and 1.308 g/L and 1.381 g/L and 1.968 g/L.

**Q.** What about the inflammation score increase ([1]; 20 mg/kg, 70 days, p<0.05 vs. vehicle) of the same molecule?
**A.** Its inflammation score increase is 81%.

**Q.** What about the fibrosis score reduction ([1]; 20 mg/kg, 70 days, p=0.055 vs. vehicle) of the same molecule?
**A.** The fibrosis score reduction was 45%.

**Q.** And the total ([1]; NAS score, 20 mg/kg group, individual animal, 20 mg/kg)?
**A.** The total was 7 and 8 and 3 (2×) and 5 (2×) and 6 (4×) and 4.

**Q.** What about the fibrosis [1, 9] of the same molecule?
**A.** The fibrosis was 0.64.

**Q.** What about the hepatocyte ballooning [1, 9] of the same molecule?
**A.** The hepatocyte ballooning was 1.91.

**Q.** What about the inflammation [1, 9] of the same molecule?
**A.** Its inflammation is 0.91.

**Q.** And the steatosis [1, 9]?
**A.** The steatosis was 1.91.

**Q.** What about the total [1, 9] of the same molecule?
**A.** Its total is 5.36.

**Q.** And the Liver weight increase ([2]; 70 days)?
**A.** Its Liver weight increase is 21%.

**Q.** What about the “Hepatic total cholesterol levels increase” value ([2]; 70 days, p<0.05 vs. vehicle) of the same molecule?
**A.** The value was 17%.

**Q.** And the liver cholesterol ([2]; group mean, n 11)?
**A.** Its liver cholesterol is 28.2 µg/mg.

**Q.** And the liver fatty acids ([2]; group mean, n 11)?
**A.** Its liver fatty acids is 63.2 nmol/mg.

**Q.** What about the liver triglycerides ([2]; group mean, n 11) of the same molecule?
**A.** Its liver triglycerides is 133.8 µg/mg.

**Q.** And the liver weight ([2]; group mean, n 11)?
**A.** Its liver weight is 2.56.

**Q.** What about the liver cholesterol ([2]; individual animals) of the same molecule?
**A.** The liver cholesterol was 27.4 µg/mg and 32.2 µg/mg and 25.8 µg/mg and 28.4 µg/mg and 28.3 µg/mg and 27.1 µg/mg and 29.9 µg/mg and 20.7 µg/mg and 31.3 µg/mg and 34.0 µg/mg and 25.3 µg/mg.

**Q.** And the liver fatty acids ([2]; individual animals)?
**A.** The liver fatty acids was 72.2 nmol/mg and 67.2 nmol/mg and 56.2 nmol/mg and 82.8 nmol/mg and 56.8 nmol/mg and 47.8 nmol/mg and 68.4 nmol/mg and 43.9 nmol/mg and 70.0 nmol/mg and 76.7 nmol/mg and 53.2 nmol/mg.

**Q.** What about the liver triglycerides ([2]; individual animals) of the same molecule?
**A.** Its liver triglycerides is 262.5 µg/mg and 203.3 µg/mg and 72.2 µg/mg and 162.3 µg/mg and 101.9 µg/mg and 53.6 µg/mg and 178.1 µg/mg and 48.9 µg/mg and 91.5 µg/mg and 195 µg/mg and 102.6 µg/mg.

**Q.** What about the liver weight ([2]; individual animals) of the same molecule?
**A.** Its liver weight is 3.24 and 2.72 and 1.97 (2×) and 2.74 and 2.39 and 2.54 and 2.44 and 2.67 and 3.05 and 2.40.
